The text below walks through data of ChEMBL document CHEMBL5137043, “trans, trans-2-C-Aryl-3,4-dihydroxypyrrolidines as potent and selective β-glucosidase inhibitors: Pharmacological chaperones for Gaucher disease” (Eur J Med Chem, 2022).

One assay deals with Saccharomyces cerevisiae. Briefly: Inhibition of yeast alpha-glucosidase assessed as reduction of p-nitrophenol release using p-nitrophenyl-glycoside as substrate at 1000 uM by spectrophotometric analysis.
The next assay deals with Oryza sativa. Briefly: Inhibition of rice alpha-glucosidase assessed as reduction of p-nitrophenol release using p-nitrophenyl-glycoside as substrate at 1000 uM by spectrophotometric analysis.
The target in assay [1] is Lysosomal alpha-glucosidase (Rattus norvegicus) (UniProt Q6P7A9). Briefly: Inhibition of rat small intestinal maltase assessed as reduction of D-glucose release using maltose as substrate at 1000 uM by colorimetric analysis. In kind it is tissue-based. The conditions noted are these: Small intestine.
Assay [2] deals with Sucrase-isomaltase, intestinal (Rattus norvegicus, UniProt P23739). Description: Inhibition of rat small intestinal sucrase assessed as reduction of p-nitrophenol release using p-nitrophenyl-glycoside as substrate by spectrophotometric analysis. In kind it is tissue-based, Small intestine.
The test system of another assay is Prunus dulcis. Description: Inhibition of almond beta-glucosidase assessed as reduction of p-nitrophenol release using p-nitrophenyl-glycoside as substrate at 1000 uM by spectrophotometric analysis.
For assay [3], the species on record is Bos taurus. Briefly: Inhibition of bovine liver beta-glucosidase assessed as reduction of p-nitrophenol release using p-nitrophenyl-glycoside as substrate at 1000 uM by spectrophotometric analysis.
Assay [4] can be described thus: Inhibition of human lysosomal beta-glucosidase assessed as reduction of p-nitrophenol release using p-nitrophenyl-glycoside as substrate by spectrophotometric analysis. The format is subcellular, Lysosome.
The target in assay [5] is Alpha-galactosidase (Coffea arabica) (UniProt Q42656). Description: Inhibition of coffee beans alpha-galactosidase assessed as reduction of p-nitrophenol release using p-nitrophenyl-glycoside as substrate at 1000 uM by spectrophotometric analysis.
The nature of assay [6]: Inhibition of bovine liver beta-galactosidase assessed as reduction of p-nitrophenol release using p-nitrophenyl-glycoside as substrate by spectrophotometric analysis. Details: species or system Bos taurus.
Assay [7] deals with T1, Alpha-mannosidase (Canavalia ensiformis) (UniProt C0HJB3).
T1 sequence (whole entry): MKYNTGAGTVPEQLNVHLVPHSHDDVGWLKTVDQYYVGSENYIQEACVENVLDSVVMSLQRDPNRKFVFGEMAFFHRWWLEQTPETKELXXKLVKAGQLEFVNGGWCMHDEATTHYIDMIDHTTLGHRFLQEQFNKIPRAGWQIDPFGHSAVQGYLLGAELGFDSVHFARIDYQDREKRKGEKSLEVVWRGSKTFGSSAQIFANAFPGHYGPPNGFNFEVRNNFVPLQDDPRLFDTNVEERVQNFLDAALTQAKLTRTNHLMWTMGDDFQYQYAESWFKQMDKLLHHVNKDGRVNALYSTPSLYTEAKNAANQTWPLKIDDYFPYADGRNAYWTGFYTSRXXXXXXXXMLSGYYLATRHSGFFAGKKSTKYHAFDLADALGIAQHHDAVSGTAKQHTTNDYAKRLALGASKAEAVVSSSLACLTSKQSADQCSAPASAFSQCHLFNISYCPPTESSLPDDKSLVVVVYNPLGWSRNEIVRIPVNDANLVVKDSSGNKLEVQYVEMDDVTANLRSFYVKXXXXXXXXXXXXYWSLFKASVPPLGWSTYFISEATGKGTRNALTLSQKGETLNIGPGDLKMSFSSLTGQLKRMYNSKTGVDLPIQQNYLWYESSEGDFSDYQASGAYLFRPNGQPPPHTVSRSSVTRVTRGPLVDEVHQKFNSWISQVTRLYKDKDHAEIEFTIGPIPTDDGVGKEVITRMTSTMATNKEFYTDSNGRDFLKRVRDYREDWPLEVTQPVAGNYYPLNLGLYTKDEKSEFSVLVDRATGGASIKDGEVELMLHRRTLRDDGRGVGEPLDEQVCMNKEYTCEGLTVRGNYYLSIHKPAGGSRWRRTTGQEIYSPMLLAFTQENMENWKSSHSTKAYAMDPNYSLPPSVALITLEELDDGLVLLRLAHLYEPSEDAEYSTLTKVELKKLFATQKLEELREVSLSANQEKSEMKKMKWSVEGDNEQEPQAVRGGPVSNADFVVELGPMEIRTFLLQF
Briefly: Inhibition of jack bean alpha-mannosidase assessed as reduction of p-nitrophenol release using p-nitrophenyl-glycoside as substrate at 1000 uM by spectrophotometric analysis.

For another assay, the system named is Helix pomatia. Briefly: Inhibition of snail beta-mannosidase assessed as reduction of p-nitrophenol release using p-nitrophenyl-glycoside as substrate at 1000 uM by spectrophotometric analysis.
Assay [8] addresses T2, Tissue alpha-L-fucosidase (Bos taurus) (UniProt Q2KIM0).
T2 sequence (whole entry): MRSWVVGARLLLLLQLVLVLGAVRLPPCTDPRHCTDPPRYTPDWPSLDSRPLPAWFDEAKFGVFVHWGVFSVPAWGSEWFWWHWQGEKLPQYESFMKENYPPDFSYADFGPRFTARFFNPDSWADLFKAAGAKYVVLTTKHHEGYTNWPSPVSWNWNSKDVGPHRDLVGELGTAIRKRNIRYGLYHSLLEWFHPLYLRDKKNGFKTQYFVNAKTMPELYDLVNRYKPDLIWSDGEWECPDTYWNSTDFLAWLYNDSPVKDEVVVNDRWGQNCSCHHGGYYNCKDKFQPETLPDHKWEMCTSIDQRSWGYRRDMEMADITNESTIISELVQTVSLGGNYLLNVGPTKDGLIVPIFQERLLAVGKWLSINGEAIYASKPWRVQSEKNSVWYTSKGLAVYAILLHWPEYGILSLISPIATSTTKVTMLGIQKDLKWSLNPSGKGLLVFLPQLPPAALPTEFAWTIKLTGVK
Description: Inhibition of bovine kidney alpha-L-fucosidase assessed as reduction of p-nitrophenol release using p-nitrophenyl-glycoside as substrate at 1000 uM by spectrophotometric analysis. In kind it is tissue-based.

The species named for a further assay is Sus scrofa. Description: Inhibition of porcine kidney alpha-trehalase assessed as reduction of p-nitrophenol release using p-nitrophenyl-glycoside as substrate at 1000 uM by spectrophotometric analysis. In kind it is tissue-based.
Another assay has as its system Aspergillus niger. Description: Inhibition of Aspergillus niger amyloglucosidase assessed as reduction of p-nitrophenol release using p-nitrophenyl-glycoside as substrate at 1000 uM by spectrophotometric analysis.
The subject of a further assay is Penicillium decumbens. Briefly: Inhibition of Penicillium decumbens alpha-L-rhamnosidase assessed as reduction of p-nitrophenol release using p-nitrophenyl-glycoside as substrate at 1000 uM by spectrophotometric analysis.
The nature of assay [9]: Inhibition of Escherichia coli beta-glucuronidase assessed as reduction of p-nitrophenol release using p-nitrophenyl-glycoside as substrate by spectrophotometric analysis.
For assay [10], the species on record is Bos taurus. Briefly: Inhibition of bovine liver beta-glucuronidase assessed as reduction of p-nitrophenol release using p-nitrophenyl-glycoside as substrate at 1000 uM by spectrophotometric analysis.
For assay [11], the target named is Lysosomal alpha-glucosidase (Homo sapiens) (UniProt P10253). Description: Inhibition of human lysosomal alpha-glucosidase assessed as reduction of p-nitrophenol release using p-nitrophenyl-glycoside as substrate at 1000 uM by spectrophotometric analysis. The conditions noted are these: Lysosome.
The target of assay [12] is T3, Lysosomal acid glucosylceramidase (Homo sapiens, UniProt P04062).
T3 sequence (P04062 whole entry): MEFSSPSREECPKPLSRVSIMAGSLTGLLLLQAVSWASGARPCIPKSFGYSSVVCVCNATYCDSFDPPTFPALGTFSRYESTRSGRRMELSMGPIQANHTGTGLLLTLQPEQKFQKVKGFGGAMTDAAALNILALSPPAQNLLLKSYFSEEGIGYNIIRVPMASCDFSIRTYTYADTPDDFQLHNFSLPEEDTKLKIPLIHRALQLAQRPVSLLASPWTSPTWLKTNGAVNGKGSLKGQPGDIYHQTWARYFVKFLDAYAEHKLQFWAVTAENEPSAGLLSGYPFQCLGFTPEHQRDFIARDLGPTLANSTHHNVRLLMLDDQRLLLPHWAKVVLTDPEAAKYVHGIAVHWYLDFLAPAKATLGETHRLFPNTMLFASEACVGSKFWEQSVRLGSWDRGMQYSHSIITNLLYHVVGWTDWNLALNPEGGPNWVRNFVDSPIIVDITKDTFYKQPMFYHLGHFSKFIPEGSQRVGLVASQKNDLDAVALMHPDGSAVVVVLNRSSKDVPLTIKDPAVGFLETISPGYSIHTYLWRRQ
Briefly: Inhibition of human GCase assessed as reduction of 4-methylumbelliferone liberation using 4-methylumbelliferyl-beta-glucopyranoside as substrate preincubated with enzyme for 45 mins followed by substrate addition and measured after 30 mins by fluorescence spectrophotometry.

The species entered for assay [13] is Bos taurus. Briefly: Inhibition of bovine liver beta-galactosidase assessed as reduction of p-nitrophenol release using p-nitrophenyl-glycoside as substrate at 1000 uM by spectrophotometric analysis.
In a further assay the test system is Escherichia coli. Description: Inhibition of Escherichia coli beta-glucuronidase assessed as reduction of p-nitrophenol release using p-nitrophenyl-glycoside as substrate at 1000 uM by spectrophotometric analysis.
Assay [14] is described as follows: Inhibition of rice alpha-glucosidase assessed as reduction of p-nitrophenol release using p-nitrophenyl-glycoside as substrate by spectrophotometric analysis. Details: species or system Oryza sativa.

Lysosomal alpha-glucosidase (Rattus norvegicus), sequence (Q6P7A9 whole entry): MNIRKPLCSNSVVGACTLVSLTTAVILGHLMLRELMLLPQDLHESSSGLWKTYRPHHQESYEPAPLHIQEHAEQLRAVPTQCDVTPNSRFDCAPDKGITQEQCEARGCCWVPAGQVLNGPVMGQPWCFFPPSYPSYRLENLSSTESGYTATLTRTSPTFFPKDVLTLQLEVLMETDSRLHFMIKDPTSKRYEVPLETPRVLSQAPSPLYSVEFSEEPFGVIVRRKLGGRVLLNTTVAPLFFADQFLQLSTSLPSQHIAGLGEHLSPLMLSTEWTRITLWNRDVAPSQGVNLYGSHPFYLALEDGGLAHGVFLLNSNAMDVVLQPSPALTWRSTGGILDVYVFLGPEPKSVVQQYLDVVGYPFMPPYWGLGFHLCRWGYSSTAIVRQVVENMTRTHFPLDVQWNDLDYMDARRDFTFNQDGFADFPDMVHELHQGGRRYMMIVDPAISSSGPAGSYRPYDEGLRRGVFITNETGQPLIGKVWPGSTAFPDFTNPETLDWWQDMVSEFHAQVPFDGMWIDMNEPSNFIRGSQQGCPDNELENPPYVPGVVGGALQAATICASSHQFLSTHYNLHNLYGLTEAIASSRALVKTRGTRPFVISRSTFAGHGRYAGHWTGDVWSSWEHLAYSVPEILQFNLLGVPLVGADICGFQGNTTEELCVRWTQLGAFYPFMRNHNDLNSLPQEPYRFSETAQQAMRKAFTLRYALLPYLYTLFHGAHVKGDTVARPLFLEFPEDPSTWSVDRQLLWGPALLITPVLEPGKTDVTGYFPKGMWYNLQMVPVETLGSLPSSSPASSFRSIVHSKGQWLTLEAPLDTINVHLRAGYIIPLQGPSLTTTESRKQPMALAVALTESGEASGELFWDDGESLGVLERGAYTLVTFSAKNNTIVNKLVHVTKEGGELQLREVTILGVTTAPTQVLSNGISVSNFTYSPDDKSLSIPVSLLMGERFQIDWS
Sucrase-isomaltase, intestinal, sequence (P23739 1-1013 limits assumed): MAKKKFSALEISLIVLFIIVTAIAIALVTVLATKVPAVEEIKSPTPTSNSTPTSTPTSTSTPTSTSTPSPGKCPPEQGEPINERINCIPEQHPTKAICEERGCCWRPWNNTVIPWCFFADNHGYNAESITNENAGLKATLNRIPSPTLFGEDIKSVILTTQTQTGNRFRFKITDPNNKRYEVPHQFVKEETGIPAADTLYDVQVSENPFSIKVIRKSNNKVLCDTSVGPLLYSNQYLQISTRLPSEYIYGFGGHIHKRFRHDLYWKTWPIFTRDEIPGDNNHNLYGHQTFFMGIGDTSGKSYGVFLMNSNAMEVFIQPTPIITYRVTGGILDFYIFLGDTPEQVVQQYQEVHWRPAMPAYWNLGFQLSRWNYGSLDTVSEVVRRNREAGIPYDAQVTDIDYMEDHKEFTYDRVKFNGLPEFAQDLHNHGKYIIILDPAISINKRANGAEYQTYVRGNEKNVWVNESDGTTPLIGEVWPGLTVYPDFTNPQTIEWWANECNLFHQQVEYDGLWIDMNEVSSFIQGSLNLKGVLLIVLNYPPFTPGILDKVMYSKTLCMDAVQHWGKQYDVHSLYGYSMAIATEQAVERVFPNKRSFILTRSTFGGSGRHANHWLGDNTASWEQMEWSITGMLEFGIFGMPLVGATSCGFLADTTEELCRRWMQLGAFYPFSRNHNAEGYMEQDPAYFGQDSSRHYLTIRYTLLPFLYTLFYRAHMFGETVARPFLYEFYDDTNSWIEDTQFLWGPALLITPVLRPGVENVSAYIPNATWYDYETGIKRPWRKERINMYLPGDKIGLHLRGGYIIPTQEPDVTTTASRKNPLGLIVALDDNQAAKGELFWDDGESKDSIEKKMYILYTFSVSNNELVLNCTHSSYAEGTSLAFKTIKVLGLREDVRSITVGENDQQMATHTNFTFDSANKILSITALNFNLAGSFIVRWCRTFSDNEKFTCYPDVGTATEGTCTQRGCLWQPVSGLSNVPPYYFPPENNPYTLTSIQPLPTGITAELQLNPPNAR
Sucrase-isomaltase, intestinal, sequence (P23739 1014-1841 limits assumed): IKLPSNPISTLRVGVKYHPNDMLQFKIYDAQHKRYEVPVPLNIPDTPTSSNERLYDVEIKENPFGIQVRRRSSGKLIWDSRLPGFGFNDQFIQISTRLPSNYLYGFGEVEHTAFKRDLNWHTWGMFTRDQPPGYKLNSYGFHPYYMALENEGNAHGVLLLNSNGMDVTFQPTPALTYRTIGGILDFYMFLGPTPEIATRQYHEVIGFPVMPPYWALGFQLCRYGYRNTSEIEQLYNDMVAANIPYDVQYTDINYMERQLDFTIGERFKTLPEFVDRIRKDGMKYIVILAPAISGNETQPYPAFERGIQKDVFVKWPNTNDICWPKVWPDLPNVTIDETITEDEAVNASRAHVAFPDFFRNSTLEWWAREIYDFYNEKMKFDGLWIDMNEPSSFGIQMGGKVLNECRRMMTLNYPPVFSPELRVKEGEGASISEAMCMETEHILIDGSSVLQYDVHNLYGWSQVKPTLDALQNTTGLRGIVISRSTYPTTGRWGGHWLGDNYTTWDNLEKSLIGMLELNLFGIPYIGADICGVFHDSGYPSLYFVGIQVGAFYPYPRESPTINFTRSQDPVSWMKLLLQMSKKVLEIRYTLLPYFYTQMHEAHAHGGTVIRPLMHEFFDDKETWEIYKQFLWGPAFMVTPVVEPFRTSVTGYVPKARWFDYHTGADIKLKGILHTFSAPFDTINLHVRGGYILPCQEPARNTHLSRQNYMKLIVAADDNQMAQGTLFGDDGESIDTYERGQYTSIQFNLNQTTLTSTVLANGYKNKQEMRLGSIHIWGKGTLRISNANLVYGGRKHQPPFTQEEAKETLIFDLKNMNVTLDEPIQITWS
Alpha-galactosidase (Coffea arabica), sequence (Q42656 16-378 limits assumed): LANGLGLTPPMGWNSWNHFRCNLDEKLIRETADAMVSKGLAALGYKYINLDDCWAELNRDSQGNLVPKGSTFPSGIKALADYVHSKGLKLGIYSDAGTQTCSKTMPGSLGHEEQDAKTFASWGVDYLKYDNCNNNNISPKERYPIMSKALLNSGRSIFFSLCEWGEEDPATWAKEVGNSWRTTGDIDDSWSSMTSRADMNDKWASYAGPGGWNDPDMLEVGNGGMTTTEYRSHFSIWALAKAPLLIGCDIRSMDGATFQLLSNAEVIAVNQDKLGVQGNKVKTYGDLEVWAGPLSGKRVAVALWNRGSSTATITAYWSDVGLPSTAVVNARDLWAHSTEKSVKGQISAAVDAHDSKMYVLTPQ

Usually inhibition stands for the change of the read-out against control, counted positive when it falls. Usually IC50 stands for the concentration that inhibits the measured activity by half. Turning to `Cc1ccc([C@H]2NC[C@@H](O)[C@@H]2O)cc1`, the inhibition came out at 11% in the assay on Saccharomyces cerevisiae; 22.8% in the assay on Oryza sativa; 24.6% in assay [1]; 13.5% in the assay with Prunus dulcis; 38.2% in the assay listed under Bos taurus [3]; 0% in assay [5]. Moreover, the inhibition worked out at 0% in assay [7]; 1.9% in the assay with Helix pomatia; 4.2% in [8]; 0% in the assay listed under Sus scrofa; 0% in the assay on Aspergillus niger; 2.8% in the assay with Penicillium decumbens. Also, the inhibition in the assay listed under Bos taurus [10] worked out at 0.3%; in [11], 15%. Further, the IC50 in assay [2] stood at 1210 µM; in [4], 3.4 µM; in assay [6], 602 µM; in assay [9], 269 µM.
Consider `CCCCCCCCCCC[C@H]1N[C@H](CO)[C@@H](O)[C@@H]1O`, for which the IC50 in assay [12] worked out at 2.3 µM.
The same measure, in the same setting: the same measure for `CCCCC[C@H]1N[C@H](CO)[C@@H](O)[C@@H]1O`: 34 µM; for `CCCCCC[C@H]1N[C@H](CO)[C@@H](O)[C@@H]1O`: 30 µM.
On to `O[C@@H]1[C@@H](O)CN[C@H]1c1ccc(F)cc1`, for which the inhibition is 8.6% with Saccharomyces cerevisiae; 41.8% in the assay with Oryza sativa; 25.6% in assay [1]; 12.6% in the assay with Prunus dulcis; 14.8% in the assay filed under Bos taurus [3]; 16.6% in assay [5]. Moreover, the inhibition was determined as 25.2% in the assay filed under Bos taurus [13]; 1.2% in [7]; 2.2% in the assay on Helix pomatia; 0% in assay [8]; 6.5% in the assay listed under Sus scrofa; 0% in the assay with Aspergillus niger. Besides, the inhibition in the assay on Penicillium decumbens is 8.3%; in the assay on Escherichia coli, 26.8%; in the assay listed under Bos taurus [10], 0%; in assay [11] it was 30%. Besides, the IC50 in assay [2] was 117 µM; in assay [4] it was 13 µM.
Consider `CCCCCCC[C@H]1N[C@H](CO)[C@@H](O)[C@@H]1O`, for which the IC50 in assay [12] was found to be 38 µM.
Regarding `CCCCCCCCC[C@H]1N[C@H](CO)[C@@H](O)[C@@H]1O`, in assay [12], the 50% inhibitory concentration (IC50) is 3.3 µM.
Still for that read-out and setting: the same measure for `CCCCCCCCCC[C@H]1N[C@H](CO)[C@@H](O)[C@@H]1O`: 1.9 µM.
As for `Cc1ccc([C@@H]2NC[C@H](O)[C@H]2O)cc1`, the inhibition with Saccharomyces cerevisiae turned out to be 5.3%; in the assay on Oryza sativa, 15.8%; in [1], 23.1%; in the assay with Prunus dulcis, 11%; in the assay listed under Bos taurus [3], 46.4%; in assay [5] it was 0%. Further, the inhibition in [7] was determined as 0.4%; with Helix pomatia, 2.2%; in assay [8], 0%; in the assay filed under Sus scrofa, 17.6%; with Aspergillus niger, 2.3%; in the assay with Penicillium decumbens, 2.3%. The inhibition in the assay listed under Bos taurus [10] was 0.3%; in [11], 4.8%. The IC50 in assay [2] is 389 µM; in assay [4], 8.7 µM; in assay [6] it was 470 µM; in [9], 610 µM.
On to `O[C@@H]1[C@@H](O)CN[C@H]1c1ccccc1` [listing 1 of 2 here], for which the IC50 in assay [14] came out at 560 µM; in [2], 603 µM; in assay [4], 22 µM.
`CCCCCCCCCCCCC[C@H]1N[C@H](CO)[C@@H](O)[C@@H]1O`: the IC50 in [12] was 0.77 µM.
Still for that read-out and setting: the same measure for `CCCCCCCC[C@H]1N[C@H](CO)[C@@H](O)[C@@H]1O`: 6.2 µM.
As to `O[C@@H]1[C@@H](O)CN[C@H]1c1ccccc1` [listing 2 of 2 here], the inhibition with Saccharomyces cerevisiae was 0.3%; in assay [1], 16.5%; in the assay with Prunus dulcis it was 3.4%; in the assay listed under Bos taurus [3], 31.7%; in [5], 2.6%; in the assay listed under Bos taurus [13], 49%. The inhibition in assay [7] amounted to 2%; in the assay with Helix pomatia, 1.1%; in [8] it was 0%; in the assay filed under Sus scrofa it was 5.7%; in the assay with Aspergillus niger it was 0%; with Penicillium decumbens, 1.8%. The results for the inhibition (with Escherichia coli; in the assay filed under Bos taurus [10]; in assay [11]) were 8.5%, 15% and 24.6%, respectively.
For `O[C@H]1[C@H](O)CN[C@@H]1c1ccc(F)cc1`, the inhibition in the assay on Saccharomyces cerevisiae is 5.6%; in the assay with Oryza sativa, 47.3%; in assay [1], 14%; with Prunus dulcis, 15%; in the assay filed under Bos taurus [3], 29%; in assay [5], 2%. Further, the inhibition worked out at 39.9% in the assay listed under Bos taurus [13]; 0.8% in [7]; 4.8% with Helix pomatia; 0% in assay [8]; 1.6% in the assay listed under Sus scrofa; 0% in the assay on Aspergillus niger. Moreover, the inhibition in the assay on Penicillium decumbens turned out to be 0%; with Escherichia coli, 43.4%; in the assay filed under Bos taurus [10], 2%; in assay [11] it was 13.4%. Besides, the IC50 is 339 µM in assay [2] and 6.2 µM in assay [4].
